For 69 compounds, melting point results are on record in patent US8674096B2, “Substituted imidazo[1,5-a]quinoxalin-4-ones as phosphodiesterase 9 inhibitors” (priority 2009, dated 2014).

Take `O=C(c1ccc2c(c1)[nH]c(=O)c1nnc(C3CCOCC3)n12)N1Cc2ccccc2C1`: the melting point was 303 °C (dec.).

`Cc1cc2c(cc1C(=O)N1CCc3ccccc31)[nH]c(=O)c1cnc(C3CCOCC3)n12.Cl` came in with a melting point of 216 to 219 °C.

`Cc1ccc2c(c1)CN(C(=O)c1cc3[nH]c(=O)c4cnc(C5CCOCC5)n4c3cc1C)C2` had a melting point of 203 to 205 °C.

As for `Cc1cc2c(cc1C(=O)N1CCc3cccnc31)[nH]c(=O)c1cnc(C3CCOCC3)n12`, the melting point was 341 °C (dec.).

`CCCc1nnc2c(=O)[nH]c3cc(C(=O)N4CCc5c(Cl)cccc5C4)c(C)cc3n12`: the melting point lay in the range of 198 to 202 °C.

As for `Cc1cc2c(cc1C(=O)N1Cc3c(F)ccc(F)c3C1)[nH]c(=O)c1cnc(C3CCOCC3)n12.Cl`, the melting point was 199 to 201 °C (dec.).

For the compound `Cc1cc2c(cc1C(=O)N1Cc3cccc(C#N)c3C1)[nH]c(=O)c1cnc(C3CCOCC3)n12.Cl`, the melting point was 328 °C (dec.).

As to `COc1cccc2c1CN(C(=O)c1cc3[nH]c(=O)c4cnc(C5CCOCC5)n4c3cc1C)C2.Cl`, the melting point is 209 °C (dec.).

As to `Cc1cc2c(cc1C(=O)N1Cc3cccc(C4CC4)c3C1)[nH]c(=O)c1cnc(C3CCOCC3)n12.Cl`, the melting point is 286 °C (dec.).

`Cc1cc2c(cc1C(=O)N1Cc3cccc(I)c3C1)[nH]c(=O)c1cnc(C3CCOCC3)n12.Cl`: the melting point was 313 °C (dec.).

`Cc1cc2c(cc1C(=O)N1CCc3ccc(Cl)cc31)[nH]c(=O)c1cnc(C3CCOCC3)n12.Cl` returned a melting point of 188 to 189 °C.

Consider `COc1cc2c(cn1)N(C(=O)c1cc3[nH]c(=O)c4cnc(C5CCOCC5)n4c3cc1C)CC2`, for which the melting point was 232 to 233 °C.

Turning to `Cc1cc2c(cc1C(=O)N1CCc3c(Cl)cccc31)[nH]c(=O)c1cnc(C3CCOCC3)n12.Cl`, the melting point lay within 272 to 273 °C.

`Cc1cc2c(cc1C(=O)N1CCc3cc(F)c(Cl)cc31)[nH]c(=O)c1cnc(C3CCOCC3)n12.Cl`: the melting point was 315 °C (dec.).

Compound `Cc1cc2c(cc1C(=O)N1Cc3ccc(Cl)cc3C1)[nH]c(=O)c1cnc(C3CCCOC3)n12.Cl` (stereo not drawn) came in with a melting point of 200 to 203 °C.

Regarding `Cc1ccc2c(c1)CCN2C(=O)c1cc2[nH]c(=O)c3cnc(C4CCOC4)n3c2cc1C.Cl` (stereo not drawn), the melting point is 186 to 188 °C (dec.).

In turn, `Cc1cc2c(cc1C(=O)N1Cc3ccc(Cl)cc3C1)[nH]c(=O)c1cnc(C3CCOC3)n12.Cl` (stereo not drawn) displayed a melting point of 185 to 187 °C.

As for `Cc1cc2c(cc1C(=O)N1Cc3cccc(C)c3C1)[nH]c(=O)c1cnc(C3CCOC3)n12.Cl` (stereo not drawn), the melting point is 270 to 272 °C (dec.).

`Cc1cnc2c(c1)CCN2C(=O)c1cc2[nH]c(=O)c3cnc(C4CCOCC4)n3c2cc1C` gave a melting point of 313 to 315 °C.

`Cc1cc2c(cc1C(=O)N1Cc3cccc(C)c3C1)[nH]c(=O)c1nnc(C3CCOC3)n12.Cl` (stereo not drawn): the melting point is 311 °C (dec.).

On to `Cc1cc2c(cc1C(=O)N1CCc3onc(-c4ccc(F)cc4)c3C1)[nH]c(=O)c1nnc(C3CCOC3)n12` (stereo not drawn), for which the melting point was 282 to 284 °C (dec.).

On to `COc1cc2c(cc1C(=O)N1CCc3cc(Cl)ccc31)[nH]c(=O)c1cnc(C3CCOCC3)n12.Cl`, for which the melting point is 328 to 330 °C (dec.).

Regarding `Cc1cc2c(cc1C(=O)N1Cc3ccccc3C1)[nH]c(=O)c1nnc(C3(C)CCOCC3)n12`, the melting point was 232 °C (dec.).

For `Cl.O=C(c1cc2[nH]c(=O)c3cnc(C4CCOCC4)n3c2cc1Cl)N1CCc2cc(Cl)ccc21`, the melting point is 352 °C (dec.).

`COc1cc2c(cn1)N(C(=O)c1cc3[nH]c(=O)c4nnc(C5CCCC5)n4c3cc1C)CC2`: the melting point was 263 to 265 °C.

`Cc1cc2c(cc1C(=O)N1CCN(C)C(c3ccccc3)C1)[nH]c(=O)c1cnc(C3CCOCC3)n12` (stereo not drawn) came in with a melting point of 189 to 192 °C.

For `Cl.O=C(c1cc2[nH]c(=O)c3cnc(C4CCOCC4)n3c2cc1C1CC1)N1Cc2ccccc2C1`, the melting point is 185 to 189 °C (dec.).

As to `Cl.O=C(c1cc2[nH]c(=O)c3cnc(C4CCOCC4)n3c2cc1C1CC1)N1Cc2ccc(Cl)cc2C1`, the melting point is 199 to 203 °C (dec.).

Regarding `COc1cc2c(cc1C(=O)N1Cc3ccc(Cl)cc3C1)[nH]c(=O)c1cnc(C3CCOCC3)n12.Cl`, the melting point is 210 to 213 °C (dec.).

`Cc1cc2c(cc1C(=O)N1CCc3cc(Cl)ccc31)[nH]c(=O)c1nnc(C3CCC(F)(F)CC3)n12` had a melting point of 230 to 233 °C.

For `COc1cc2c(cn1)N(C(=O)c1cc3[nH]c(=O)c4cnc(C5CCOCC5)n4c3cc1C1CC1)CC2`, the melting point is 241 °C (dec.).

In turn, `Cc1cc2c(cc1C(=O)N1Cc3cccc(F)c3C1)[nH]c(=O)c1cnc(C3CCOCC3)n12.Cl` displayed a melting point of 201 to 203 °C.

Take `Cl.O=C(c1cc2[nH]c(=O)c3cnc(C4CCOCC4)n3c2cc1Cl)N1Cc2ccccc2C1`: the melting point is 332 °C (dec.).

Compound `Cc1cc2c(cc1C(=O)N1CCc3cc(F)ccc31)[nH]c(=O)c1nnc(C3CCCOC3)n12.Cl` (stereo not drawn) showed a melting point of 235 to 237 °C.

`Cc1cc2c(cc1C(=O)N1Cc3ccccc3C1)[nH]c(=O)c1nnc(C3CCOC3)n12.Cl` (stereo not drawn): the melting point lay in the range of 223 to 224 °C.

`Cc1cc2c(cc1C(=O)N1CCc3ncccc3C1)[nH]c(=O)c1cnc(C3CCOCC3)n12` registered a melting point of 236 to 239 °C.

Take `Cc1cc2c(cc1C(=O)N1Cc3ccccc3C1)[nH]c(=O)c1nnc(C3CCCOC3)n12.Cl` (stereo not drawn): the melting point was 303 °C (dec.).

Take `O=C(c1cc2[nH]c(=O)c3nnc(C4CCOCC4)n3c2cc1Br)N1Cc2ccccc2C1`: the melting point was 350 °C (dec.).

For the compound `Cc1cc2c(cc1C(=O)N1CCc3cc(F)ccc31)[nH]c(=O)c1c(C)nc(C3CCOCC3)n12`, the melting point was in the range of 177 to 180 °C.

For the compound `Cc1cc2c(cc1C(=O)N1CCc3cccnc31)[nH]c(=O)c1c(C)nc(C3CCOCC3)n12`, the melting point was 192 °C (dec.).

In the case of `COCc1cc2c(cc1C(=O)N1CCc3cc(F)ccc31)[nH]c(=O)c1cnc(C3CCOCC3)n12.Cl`, the melting point is 301 to 304 °C (dec.).

Take `COCc1cc2c(cc1C(=O)N1Cc3ccccc3C1)[nH]c(=O)c1cnc(C3CCOCC3)n12.Cl`: the melting point is 261 to 264 °C (dec.).

`Cc1c(C(=O)N2Cc3ccccc3C2)ccc2c1[nH]c(=O)c1cnc(C3CCOCC3)n12.Cl` came in with a melting point of 183 to 186 °C.

`Cc1cc2c(cc1C(=O)N1CCc3cc(C4CC4)cnc31)[nH]c(=O)c1nnc(C3CCOCC3)n12` gave a melting point of 210 to 212 °C.

`Cc1cc2c(cc1C(=O)N1CCc3cc(C4CC4)cnc31)[nH]c(=O)c1nnc(C3CCCOC3)n12` (stereo not drawn): the melting point lay within 204 to 206 °C.

Regarding `Cc1cc2c(cc1C(=O)N1CCc3cc(Cl)ccc31)[nH]c(=O)c1nnc(C3CCC3)n12.Cl`, the melting point lay in the range of 225 to 228 °C.

In turn, `Cc1cc2c(cc1C(=O)N1CCc3cc(F)ccc31)[nH]c(=O)c1nnc(C3CCC3)n12.Cl` displayed a melting point of 223 to 226 °C.

Compound `Cc1cc2c(cc1C(=O)N1CCc3cc(Cl)ccc31)[nH]c(=O)c1nnc(C3(C)CCOCC3)n12.Cl` had a melting point of 229 to 232 °C.

With `COc1cc2c(cc1C(=O)N1CCc3cc(C)cnc31)[nH]c(=O)c1cnc(C3CCOCC3)n12`, the melting point is 288 °C (dec.).

The compound `Cc1cc2c(cc1C(=O)N1CCc3cc(Cl)ccc31)[nH]c(=O)c1cnc([C@H]3CC[C@H](O)CC3)n12.Cl` registered a melting point of 207 to 209 °C.

For the compound `COCc1cc2c(cc1C(=O)N1Cc3cccc(F)c3C1)[nH]c(=O)c1cnc(C3CCOCC3)n12.Cl`, the melting point was 277 °C (dec.).

For the compound `Cc1cc2c(cc1C(=O)N1CCc3cc(F)ccc31)[nH]c(=O)c1cnc([C@H]3CC[C@H](O)CC3)n12.Cl`, the melting point was 199 to 201 °C.

The compound `Cc1cc2c(cc1C(=O)N1CCc3cc(Br)cnc31)[nH]c(=O)c1cnc([C@H]3CC[C@@H](O)CC3)n12.Cl` came in with a melting point of 305 to 307 °C.

With `Cc1c(C(=O)N2CCc3cccnc32)ccc2c1[nH]c(=O)c1cnc(C3CCOCC3)n12.Cl`, the melting point is 320 °C (dec.).

As to `Cc1cc2c(cc1C(=O)N1CCc3cc(Cl)ccc31)[nH]c(=O)c1nnc(CC3CC3)n12`, the melting point was in the range of 303 to 305 °C.

As to `CC(C)c1ncc2c(=O)[nH]c3cc(C(=O)N4CCOC(c5ccccc5)C4)ccc3n12.Cl` (stereo not drawn), the melting point was 268 to 271 °C.

`CC(C)c1ncc2c(=O)[nH]c3cc(C(=O)N4CCc5c(Cl)cccc5C4)ccc3n12.Cl` gave a melting point of 328 to 329 °C.

In turn, `COc1cc2c(cc1C(=O)N1CCOC(c3ccccc3)C1)[nH]c(=O)c1cnc(C3CCCCC3)n12.Cl` (stereo not drawn) had a melting point of 182 to 186 °C.

For `Cc1cc2c(cc1C(=O)N1CCc3cc(F)ccc31)[nH]c(=O)c1nnc(C3CCOCC3)n12.Cl`, the melting point lay in the range of 221 to 223 °C.

Compound `Cc1cc2c(cc1C(=O)N1CCc3ccc([N+](=O)[O-])cc31)[nH]c(=O)c1cnc(C3CCOCC3)n12.Cl` displayed a melting point of 301 to 304 °C.

`Cc1cc2c(cc1C(=O)N1Cc3ccccc3C1)[nH]c(=O)c1nnc(CC3CCS(=O)(=O)CC3)n12.Cl`: the melting point was 253 °C (dec.).

For the compound `Cc1cc2c(cc1C(=O)N1Cc3ccccc3C1)[nH]c(=O)c1cnc(C3CCOC3)n12.Cl` (stereo not drawn), the melting point was 270 °C (dec.).

With `Cc1cc2c(cc1C(=O)N1Cc3ccccc3C1)[nH]c(=O)c1nnc(CC3CC[S+]([O-])CC3)n12` (stereo not drawn), the melting point was 248 °C (dec.).

Regarding `Cc1cc2c(cc1C(=O)N1Cc3ccccc3C1)[nH]c(=O)c1nnc(C3CCCC3)n12`, the melting point was 318 °C (dec.).

In the case of `Cc1cc2c(cc1C(=O)N1CCc3c(Cl)cccc3C1)[nH]c(=O)c1nnc(C3CCOCC3)n12`, the melting point is 269 °C (dec.).

On to `Cc1cc2c(cc1C(=O)N1Cc3cccc(Cl)c3C1)[nH]c(=O)c1nnc(C3CCOCC3)n12`, for which the melting point is 329 °C (dec.).

In turn, `Cc1cc2c(cc1C(=O)N1CCOC(c3ccccc3)C1)[nH]c(=O)c1cnc(C3CCCC3)n12` (stereo not drawn) registered a melting point of 304 to 305 °C.

Turning to `Cc1cc2c(cc1C(=O)N1CCN(C)C(c3ccccc3)C1)[nH]c(=O)c1cnc(C3CCCC3)n12` (stereo not drawn), the melting point was 246 to 248 °C.

In the case of `Cc1cc2c(cc1C(=O)N1Cc3ccccc3C1)[nH]c(=O)c1cnc(C3CCCC3)n12`, the melting point is 304 °C (dec.).

By melting point is commonly meant the temperature of the solid-liquid transition.
